target: T1, Human orexin receptor type 2 (Homo sapiens, UniProt O43614); experiment: Test 1: Evaluation of agonist activity for orexin receptor type 2 (aequorin luminescence, intracellular calcium mobilization in CHO cells); assay type: cell-based; details: relative percentage of luminescence for the luminescence (100%) of Orexin A (100 pM); CHO cells transiently expressing human orexin receptor type 2 and apoaequorin; Orexin A Lot. 641114
T1 construct: expressed in transfected cells; host or cells: CHO cells (transient expression)
T1 sequence (O43614 1-444): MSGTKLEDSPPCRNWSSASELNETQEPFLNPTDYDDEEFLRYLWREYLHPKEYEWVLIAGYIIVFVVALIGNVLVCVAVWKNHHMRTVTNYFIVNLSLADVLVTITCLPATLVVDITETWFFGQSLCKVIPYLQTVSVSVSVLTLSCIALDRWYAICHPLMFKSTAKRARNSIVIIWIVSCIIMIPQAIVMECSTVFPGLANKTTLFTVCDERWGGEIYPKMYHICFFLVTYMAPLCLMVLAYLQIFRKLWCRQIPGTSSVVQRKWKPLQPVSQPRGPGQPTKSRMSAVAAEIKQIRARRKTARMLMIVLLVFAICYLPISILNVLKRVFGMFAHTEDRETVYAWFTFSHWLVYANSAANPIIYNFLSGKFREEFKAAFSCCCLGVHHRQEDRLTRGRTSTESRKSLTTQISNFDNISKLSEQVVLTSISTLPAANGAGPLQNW
Description: Test 1: Evaluation of Agonist Activity for Orexin Receptor Type 2
Human orexin receptor type 2 and apoaequorin were transiently expressed in CHO cells, and the agonist activity was evaluated based on intracellular calcium mobilization with ligand stimulation. The CHO cells transiently-expressed human orexin receptor type 2 and apoaequorin were seeded on a 384-well plate by 2,000 cells/well, and then incubated for 16-22 hours. After the plate was returned to room temperature, Coelenterazine hcp (final concentration: 1 μM) was added to the plate, and the plate was allowed to stand at room temperature for 2 hours. And then, Orexin A (PEPTIDE INSTITUTE, INC., Lot. 641114) or each test compound was added to the plate, and the luminescence of the cells was measured with FDSS7000 (Hamamatsu Photonics K.K.), wherein Orexin A and each test compound were dissolved in DMSO (final concentration: 0.1%), and diluted with a buffer (Hanks, 20 mM HEPES, 0.1% BSA). The agonist activity of each test compound for orexin receptor type 2 was calculated as relative percentage of luminescence for the luminescence (100%) of Orexin A (100 pM).

Compound | agonist activity (%)
CC(C)N1CC2CCC(C1)N2[C@H]1CCCC(F)(F)[C@@H]1NC(=O)N1CCC(C)(c2cc(C3CC3)on2)CC1 [Example 65, 4-(5-cyclopropyl-1,2-oxazol-3-yl)-N-{(1R,6S)-2,2-difluoro-6-[3-(propan-2-yl)-3,8-diazabicyclo[3.2.1]octan-8-yl]cyclohexyl}-4-methylpiperidine-1-carboxamide] | 155
CC(C)N1CCN([C@H]2CCC[C@@H]2NC(=O)N2CCC(C)(c3cc(C4CC4)on3)CC2)CC1 (racemic) [Example 6, rac-4-(5-cyclopropyl-1,2-oxazol-3-yl)-4-methyl-N-{(1S,2S)-2-[4-(propan-2-yl)piperazin-1-yl]cyclopentyl}piperidine-1-carboxamide] | 43
CC(C)N1CCN([C@H]2CCCC(F)(F)[C@@H]2NC(=O)N2CCC(C)(c3ncn(C4CC4)n3)CC2)CC1 (racemic) [Example 29, rac-4-(1-cyclopropyl-?H-1,2,4-triazol-3-yl)-N-{(1R,6S)-2,2-difluoro-6-[4-(propan-2-yl)piperazin-1-yl]cyclohexyl}-4-methylpiperidine-1-carboxamide] | 109
CC(C)N1CCN([C@H]2CCCC(F)(F)[C@@H]2NC(=O)N2CCC(c3ccccn3)CC2)CC1 (racemic) [Example 32, rac-N-{(1R,6S)-2,2-difluoro-6-[4-(propan-2-yl)piperazin-1-yl]cyclohexyl}-4-(pyridin-2-yl)piperidine-1-carboxamide] | 176
CCN1CCN([C@H]2CCCC[C@H]2NC(=O)N2CCC(c3ccc(C)cc3)CC2)CC1 (racemic) [Example 2, rac-N-[(1R,2S)-2-(4-ethylpiperazin-1-yl)cyclohexyl]-4-(4-methylphenyl)piperidine-1-carboxamide] | 58
CCc1nc(C2(C)CCN(C(=O)N[C@@H]3[C@@H](N4CCN(C(C)C)CC4)CCCC3(F)F)CC2)no1 (racemic) [Example 28, rac-N-{(1R,6S)-2,2-difluoro-6-[4-(propan-2-yl)piperazin-1-yl]cyclohexyl}-4-(5-ethyl-1,2,4-oxadiazol-3-yl)-4-methylpiperidine-1-carboxamide] | 190
Cc1nc(C2(C)CCN(C(=O)N[C@H]3CCCC[C@@H]3N3CCN(C(C)C)CC3)CC2)no1 (racemic) [Example 3, rac-4-methyl-4-(5-methyl-1,2,4-oxadiazol-3-yl)-N-{(1S,2S)-2-[4-(propan-2-yl)piperazin-1-yl]cyclohexyl}piperidine-1-carboxamide] | 67
CC(C)N1CC=C(C2=CCCCC2NC(=O)N2CCC(C)(c3noc(C4CC4)n3)CC2)CC1 (racemic) [Example 18, rac-4-(5-Cyclopropyl-1,2,4-oxadiazol-3-yl)-4-methyl-N-{2-[1-(propan-2-yl)-1,2,3,6-tetrahydropyridin-4-yl]cyclohex-2-en-1-yl}piperidine-1-carboxamide] | 73
CC(C)N1CCN([C@H]2CCCC(F)(F)[C@@H]2NC(=O)N2CCC3(CCCC3)CC2)CC1 (racemic) [Example 33, rac-N-{(1R,6S)-2,2-difluoro-6-[4-(propan-2-yl)piperazin-1-yl]cyclohexyl}-8-azaspiro[4.5]decane-8-carboxamide] | 123
CC(C)N1CCN([C@H]2CCCC(F)(F)[C@@H]2OC(=O)N2CCC(C)(c3ncn(C4CC4)n3)CC2)CC1 (racemic) [Example 13, rac-(1R,6S)-2,2-difluoro-6-[4-(propan-2-yl)piperazin-1-yl]cyclohexyl 4-(1-cyclopropyl-1H-1,2,4-triazol-3-yl)-4-methylpiperidine-1-carboxylate] | 56

The remaining lines, values ahead:

agonist activity (%) | Compound
154 | Cc1ccc(C2CCN(C(=O)N[C@@H]3[C@@H](N4CCN(C(C)C)CC4)CCCC3(F)F)CC2)nc1 (racemic) [Example 50, rac-N-{(1R,6S)-2,2-difluoro-6-[4-(propan-2-yl)piperazin-1-yl]cyclohexyl}-4-(5-methylpyridin-2-yl)piperidine-1-carboxamide]
163 | CC(C)N1CCN([C@H]2CCCC(F)(F)[C@@H]2NC(=O)N2CCC(C)(c3csc(C4CC4)n3)CC2)CC1 (racemic) [Example 47, rac-4-(2-cyclopropyl-1,3-thiazol-4-yl)-N-{(1R,6S)-2,2-difluoro-6-[4-(propan-2-yl)piperazin-1-yl]cyclohexyl}-4-methylpiperidine-1-carboxamide]
57 | Cc1ccc(C2CCN(C(=O)NC3C(CN4CCN(C(C)C)CC4)[C@@H]4CC[C@H]3C4)CC2)cc1 (mixture of isomers) [Example 81, rac-4-(4-Methylphenyl)-N-[(1S,4R)-3-{[4-(propan-2-yl)piperazin-1-yl]methyl}bicyclo[2.2.1]heptan-2-yl]piperidine-1-carboxamide]
36 | Cc1ccc(C2CC=C(C(=O)O[C@@H]3[C@@H](N4CCN(C(C)C)CC4)CCCC3(F)F)CC2)cc1 (mixture of isomers) [Example 78, rac-(1R,6S)-2,2-Difluoro-6-[4-(propan-2-yl)piperazin-1-yl]cyclohexyl 4′-methyl-1,2,3,6-tetrahydro[1,1′-biphenyl]-4-carboxylate]
156 | CC(C)N1CCN([C@H]2CCCC(F)(F)[C@@H]2NC(=O)N2CCC(C)(c3ncc(C4CC4)s3)CC2)CC1 (racemic) [Example 48, rac-4-(5-cyclopropyl-1,3-thiazol-2-yl)-N-{(1R,6S)-2,2-difluoro-6-[4-(propan-2-yl)piperazin-1-yl]cyclohexyl}-4-methylpiperidine-1-carboxamide]

target: T1, Human orexin receptor type 2; experiment: Test 2: Evaluation of agonist activity for orexin receptor type 2 (aequorin luminescence, intracellular calcium mobilization in CHO cells); assay type: cell-based; details: relative percentage of luminescence for the luminescence (100%) of Orexin A (100 pM); CHO cells transiently expressing human orexin receptor type 2 and apoaequorin; Orexin A Lot. 671009
Procedure, shortened: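 CHO cells transiently co-expressing the receptor and apoaequorin, incubated 16–22 h, were loaded 2 h at room temperature with 1 μM coelenterazine hcp (final). Compounds in Hanks/20 mM HEPES/0.1% BSA (0.1% DMSO final) were added and the calcium luminescence was read and expressed as % of Orexin A (100 pM).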

agonist activity (%) | Compound
486 | CC(C)N1CCN([C@H]2CCCC(F)(F)[C@@H]2NC(=O)N2CCC(C)(c3noc(C4CCC4)n3)CC2)CC1 [Example 97, 4-(5-cyclobutyl-1,2,4-oxadiazol-3-yl)-N-{(1R,6S)-2,2-difluoro-6-[4-(propan-2-yl)piperazin-1-yl]cyclohexyl}-4-methylpiperidine-1-carboxamide]
371 | CC(C)N1CCC(O[C@H]2CCCC(F)(F)[C@@H]2NC(=O)N2CCC(C)(c3noc([C@@H]4C[C@@H]4F)n3)CC2)CC1 [Example 83, N-[(1R,6S)-2,2-difluoro-6-{[1-(propan-2-yl)piperidin-4-yl]oxy}cyclohexyl]-4-{5-[(1S,2S)-2-fluorocyclopropyl]-1,2,4-oxadiazol-3-yl}-4-methylpiperidine-1-carboxamide]
378 | CC(C)(C)CN1CC[C@H](O[C@H]2CCCC(F)(F)[C@@H]2NC(=O)N2CCC(C)(c3noc(C4CC4)n3)CC2)C1 [Example 119, 4-(5-cyclopropyl-1,2,4-oxadiazol-3-yl)-N-[(1R,6S)-6-{[(3S)-1-(2,2-dimethylpropyl)pyrrolidin-3-yl]oxy}-2,2-difluorocyclohexyl]-4-methylpiperidine-1-carboxamide]
367 | CC(C)c1nc([C@H]2CCCC(F)(F)[C@@H]2NC(=O)N2CCC(C)(c3noc([C@@H]4C[C@@H]4F)n3)CC2)no1 [Example 86, N-{(1R,6S)-2,2-difluoro-6-[5-(propan-2-yl)-1,2,4-oxadiazol-3-yl]cyclohexyl}-4-{5-[(1S,2S)-2-fluorocyclopropyl]-1,2,4-oxadiazol-3-yl}-4-methylpiperidine-1-carboxamide]
391 | CC(C)N(C)C1CN([C@H]2CCCC(F)(F)[C@@H]2NC(=O)N2CCC(C)(c3noc([C@@H]4C[C@@H]4F)n3)CC2)C1 [Example 148, N-[(1R,6S)-2,2-difluoro-6-{3-[methyl(propan-2-yl)amino]azetidin-1-yl}cyclohexyl]-4-{5-[(1S,2S)-2-fluorocyclopropyl]-1,2,4-oxadiazol-3-yl}-4-methylpiperidine-1-carboxamide]
382 | CC(C)N1CCN([C@H]2CCCC(F)(F)[C@@H]2NC(=O)N2CCC(C)(c3noc([C@@H]4C[C@@H]4F)n3)CC2)[C@H](C)C1 [Example 111, N-{(1R,6S)-2,2-difluoro-6-[(2R)-2-methyl-4-(propan-2-yl)piperazin-1-yl]cyclohexyl}-4-{5-[(1S,2S)-2-fluorocyclopropyl]-1,2,4-oxadiazol-3-yl}-4-methylpiperidine-1-carboxamide]
